# Publication PMC8596838, “Xylose‐Configured Cyclophellitols as Selective Inhibitors for Glucocerebrosidase” (Chembiochem, 2021)
# Legend:
# GBA2 = biological target: T1, GBA2 (Homo sapiens, UniProt Q9HCG7); assay: Inhibition in intact HEK293T cells (24 h), read out by cABPP with ABP 10, GBA2; assay type: cell-based; settings: for IC50: 24 h treatment, cABPP quantification, n=3; for GBA2/GBA ratio, intact cells: IC50 ratio, 24 h
# T1 construct: expressed in transfected cells; host or cells: HEK293T (GBA/GBA2 KO background for the fluorogenic assay; endogenous-GBA background with GBA2 and GBA3 overexpressed for ABPP and intact-cell assays)
# T1 sequence (Q9HCG7 1-927): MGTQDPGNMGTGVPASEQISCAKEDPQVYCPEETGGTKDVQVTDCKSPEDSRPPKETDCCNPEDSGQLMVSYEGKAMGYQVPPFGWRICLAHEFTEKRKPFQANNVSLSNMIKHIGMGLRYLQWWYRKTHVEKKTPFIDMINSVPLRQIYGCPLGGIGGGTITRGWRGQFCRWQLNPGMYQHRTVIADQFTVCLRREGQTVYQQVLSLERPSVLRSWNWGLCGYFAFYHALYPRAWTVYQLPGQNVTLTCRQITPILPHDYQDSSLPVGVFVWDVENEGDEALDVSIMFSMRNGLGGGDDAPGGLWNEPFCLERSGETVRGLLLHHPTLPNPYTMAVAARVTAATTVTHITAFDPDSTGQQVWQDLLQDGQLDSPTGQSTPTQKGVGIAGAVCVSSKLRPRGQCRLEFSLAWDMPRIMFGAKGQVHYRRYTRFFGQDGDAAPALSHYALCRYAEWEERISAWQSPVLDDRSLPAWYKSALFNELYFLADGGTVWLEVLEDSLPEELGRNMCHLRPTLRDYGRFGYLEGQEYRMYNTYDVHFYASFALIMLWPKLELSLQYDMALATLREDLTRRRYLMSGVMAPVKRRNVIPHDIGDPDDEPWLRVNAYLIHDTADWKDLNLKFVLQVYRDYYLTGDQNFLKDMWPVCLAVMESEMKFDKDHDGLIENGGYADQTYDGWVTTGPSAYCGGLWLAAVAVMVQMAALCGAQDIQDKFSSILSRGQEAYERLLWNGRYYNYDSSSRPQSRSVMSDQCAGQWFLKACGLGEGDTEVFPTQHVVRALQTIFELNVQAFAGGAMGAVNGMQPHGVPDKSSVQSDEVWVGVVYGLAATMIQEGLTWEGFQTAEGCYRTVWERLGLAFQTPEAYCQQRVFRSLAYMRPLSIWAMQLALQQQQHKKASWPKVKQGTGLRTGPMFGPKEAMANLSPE
# Excerpt: (§1) We next examined the activity of 1 and 2 towards the three human β‐D‐glucosidase in intact HEK293T cells. […] It is noted that the GBA‐selectivity of both compounds is much improved in intact cells than in the in vitro system (Figure 2 and Table 1). This is especially true for compound 1, where an impressive 4‐logs of selectivity window is observed.
# (§2) Figure 5 Inhibitory effect of β‐D‐xylo‐configured cyclophellitol 1 and cyclophellitol aziridine 2 on β‐glucosidases in intact HEK293T cells expressing GBA, GBA2 and GBA3. (A) Representative gel images of cABPP where cells were treated for 24 h with indicated inhibitor. Lysates were then prepared and labeled with fluorescent ABP 10. Fluorescently labeled proteins were visualized after SDS‐PAGE (1 set from n=3 replicates). (B) IC50 curves determined by cABPP labeling results. (C) Apparent IC50 values towards β‐glucosidases in intact HEK293T cells producing GBA, GBA2 and GBA3 were determined by the fluorescence quantification based on cABPP SDS‐PAGE results.
# (§3) ABP labeling procedure: Glycosidases were labeled with excess fluorescent ABPs at optimum conditions. ABP labeling was performed at 37 °C for 30 min for all materials (if not otherwise stated), in a total sample volume of 20–40 μL and 0.5–1 % DMSO concentration. GBA was labeled with 200 nM ABP 9 (pH 5.2, 0.1 % (v/v) Triton‐100, 0.2 % (w/v) sodium taurocholate), or labeled together with GBA2 using 200 nM β‐D‐glucose‐configured aziridine ABP 10 at pH 5.8, or labeling together with GBA2 and GBA3 using 200 nM β‐D‐glucose‐configured aziridine ABP 10 at pH 6.0. After ABP incubation, proteins were denatured by boiling the samples with 5× Laemmli buffer (50 % (v/v) 1 M Tris‐HCl, pH 6.8, 50 % (v/v) 100 % glycerol, 10 % (w/v) DTT, 10 % (w/v) SDS, 0.01 % (w/v) bromophenol blue) for 5 min at 98 °C, and separated by electrophoresis on 10 % (w/v) SDS‐PAGE gels running continuously at 90 V. Wet slab‐gels were scanned on fluorescence using the Typhoon FLA 9500 (GE Healthcare) at λEX 473 nm and λEM≥510 nm for green fluorescent ABP 8; and at λEX 635 nm and λEM≥665 nm for ABP 6, 9 and 10. ABP‐emitted fluorescence was quantified using ImageQuant software (GE Healthcare, Chicago, IL, USA) and curve‐fitted using Prism 8.0 (GraphPad Software). After fluorescence scanning, SDS‐PAGE gels were stained for total protein with Coomassie G250 and scanned on a ChemiDoc MP imager (Bio‐Rad, Hercules, CA, USA).[25]
# Assessment of inhibitor activity in cultured cells: Confluent HEK293T stably expressing human GBA and GBA2 GBA3 overexpressing were cultured in 24‐well plates in triplicates with(out) inhibitors for 24 h at 37 °C with 7 % CO2. […]
# GBA = biological target: T2, GBA (Homo sapiens, UniProt P04062); assay: Inhibition in intact HEK293T cells (24 h), read out by cABPP with ABP 10, GBA; assay type: cell-based; settings: for IC50: 24 h treatment, cABPP quantification, n=3
# T2 construct: HEK293T cells that contain endogenous GBA; endogenous in cells; host or cells: HEK293T (ATCC CRL-3216) overexpressing GBA2 and GBA3
# T2 sequence (P04062 40-536): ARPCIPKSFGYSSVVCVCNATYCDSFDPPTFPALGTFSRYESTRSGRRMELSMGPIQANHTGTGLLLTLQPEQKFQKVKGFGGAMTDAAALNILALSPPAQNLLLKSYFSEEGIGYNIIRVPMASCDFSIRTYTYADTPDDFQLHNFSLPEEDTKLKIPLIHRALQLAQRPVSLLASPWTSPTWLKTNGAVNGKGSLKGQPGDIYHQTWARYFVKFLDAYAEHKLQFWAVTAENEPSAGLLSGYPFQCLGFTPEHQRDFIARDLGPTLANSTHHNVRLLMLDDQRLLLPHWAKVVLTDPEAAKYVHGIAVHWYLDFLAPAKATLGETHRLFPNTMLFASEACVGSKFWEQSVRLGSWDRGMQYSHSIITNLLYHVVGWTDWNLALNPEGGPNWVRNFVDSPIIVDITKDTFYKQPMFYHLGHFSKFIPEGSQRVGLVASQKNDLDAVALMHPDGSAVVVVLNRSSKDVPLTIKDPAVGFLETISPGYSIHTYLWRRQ
# Excerpt: as §1, §2
# as §3, with “ABP labeling was performed at 37 °C for 30 min for all materials (if not otherwise stated), in a total sample volume of 20–40 μL and 0.5–1 % DMSO concentration. GBA was labeled with 200 nM ABP 9 (pH 5.2, 0.1 % (v/v) Triton‐100, 0.2 % (w/v) sodium taurocholate), or labeled together with GBA2 using 200 nM β‐D‐glucose‐configured aziridine ABP 10 at pH 5.8, or labeling together with GBA2 and GBA3 using 200 nM β‐D‐glucose‐configured aziridine ABP 10 at pH 6.0.” left out, “USA).[25] […]” for “USA).[25]”
SMILES,IC50 (GBA2),"GBA2/GBA ratio, intact cells (GBA2)",selectivity window for GBA in intact cells (GBA; 24 h),IC50 (GBA)
"O[C@@H]1[C@@H](O)[C@H](O)C[C@H]2O[C@@H]12 [compound 1, xylo‐cyclophellitol]",> 100 µM,> 10000,4 logs,0.00571 µM
"O[C@@H]1[C@@H](O)[C@H](O)C[C@H]2N[C@@H]12 [compound 2, β‐D‐xylo‐Cyclophellitol aziridine]",10.4 ± 1.53 µM,247,–,0.0422 µM
